Measurements reported in patent US11279719B2, “Substituted bicyclic pyrimidine-based compounds and compositions and uses thereof” (priority 2017, dated 2022).
Like-named read-outs stand apart in the source and are kept apart here.

How the values were obtained:
RPMI-8226 = experiment: MM cell viability assay (MTS proliferation); type: cell-based; conditions: Homo sapiens, 72 hours, average of n ≥ 8 determinations, read-out: MM cells EC50, RPMI-8226
hFPPS [1] = molecular target: T1, hFPPS (Homo sapiens (Human), UniProt P14324); experiment: biochemical
KMS28PE = experiment: MM cell viability assay (MTS proliferation); type: cell-based; conditions: Homo sapiens, KMS-28PE; 72 hours, average of n ≥ 8 determinations; read-out: MM cells EC50, KMS28PE
Method: (§1) Various MM cancer cell lines (Table 3 and FIGS. 5 and 6) were cultured in RPMI-1640 medium supplemented with 10% fetal bovine serum (Gibco BRL, Gaithersburg, Md.) supplemented with 2 mM L-glutamine in a 5% CO2 atmosphere at 37° C. EC50 values for each target compound were determined using a commercial MTS proliferation assay (Promega, Madison, Wis.) following the manufacturer's instructions. Briefly, compounds were diluted directly into culture medium and then applied to cells that were seeded in 96-well plates at a density 5,000 cells per well. Cells were incubated with the indicated final concentration of compound in a total media volume of 100 μl/well for 72 hours prior to the addition of the MTS reagent. Plates were incubated at 37° C. in the presence 5% CO2 for 2 hours prior to recording OD490 using a Tecan Infinite M200Pro microplate reader. Results were analyzed to obtain dose-response curves and EC50 calculations using GraphPad PRISM version 5 for the MacIntosh (GraphPad Software, San Diego, Calif.).

JJN3 = experiment: MM cell viability assay (MTS proliferation); type: cell-based; conditions: Homo sapiens, JJN-3; 72 hours, average of n ≥ 8 determinations; read-out: MM cells EC50, JJN3
Method: as §1

recombinant human GGPPS = recombinant human GGPPS (Homo sapiens (Human), UniProt O95749); experiment: In vitro hGGPPS inhibition assay; type: biochemical; conditions: for IC50: wild-type hGGPPS enzyme, average of n ≥ 3 determinations; for selectivity improved for inhibiting hGGPPS vs hFPPS: starting from the original hits, e.g. C-5
[2] = test system: acute monocytic leukemia (MOLM-13) cells; experiment: Cancer cell viability; type: cell-based, human; conditions: compared to zolendronate (ZOL), FIG. 4
Method: (§2) NCI-ADR-RES cells were obtained from National Cancer Institute (NCI) and all other cell lines were obtained from the American Type Culture Collection (ATCC). NHBE cells were maintained in Bronchial Epithelial Cell Growth Medium (BEGM) supplemented with 10% FBS (Multicell) and 2 mM L-glutamine (Gibco/Life Technologies). All other cells were maintained in culture using Roswell Park Memorial Institute (RPMI) 1640 media supplemented with 10% FBS (Multicell), Penicillin (100 U/mL), Streptomycin (100 ug/mL) and 2 mM L-glutamine (Gibco/Life Technologies). Cells were plated in logarithmic growth phase in each well of clear bottom multiwell plates and cultured 16-24 h before drug treatment. […]
(§3) Cell viability was determined by cellular quantitation of adenosine triphosphate (ATP) using the CellTiter-Glo Luminescent Cell Viability Assay Kit (Promega Corporation, Cat. No. G7571). Briefly, the CellTiter-Glo «one-mix-measure» reagent, containing both the cell permeabilizing agent and the Ultra-Glo luciferase, was added to the cell culture according to manufacturers' instructions allowing the free ATP to be released from viable cells and subsequently converted into luminescence. The luminescence generated in the reaction is directly proportional to cell viability and was quantified in a luminometer (PHERAstar FS, BMG Labtech) […]

[3] = test system: chronic myelogenous leukemia (K562) cells; experiment: Cancer cell viability; type: cell-based, human; conditions: compared to zolendronate (ZOL), FIG. 4
Method: as §2, §3

hFPPS [4] = molecular target: T1, hFPPS; conditions: read-out: hFPPS IC50
[5] = test system: multiple myeloma cell line RPMI-8226; experiment: Apoptosis assay in multiple myeloma cells (flow cytometry); type: cell-based, human; conditions: 100 nM, 500 nM, and 1 μM, 72 h, FIG. 6
Method: To determine the ability of compounds of the application to induce MM cell lines to undergo apoptosis, cells were seeded at a density of 7.5×10^5/mL in medium supplemented with 10% FBS with increasing concentrations of compound (i.e. compound that inhibits hGGPPS) or vehicle alone. Following a 72 h incubation, apoptosis was determined by double staining with APC Annexin V (BD Biosciences, Mississauga ON) and eFluor 780 Viability dye (ThermoFisher Scientific) according to the manufacturer's directions. Stained samples were acquired on a BD FACSCanto II instrument (BD Biosciences, Mississauga ON) and post-acquisition analyses were performed using FlowJo (V10) software. Apoptosis of multiple myeloma cells was also determined by flow cytometry by double staining cells with Allophycocyanin (APC) conjugated Annexin V and a V450 conjugated Mouse Anti-Human CD138 monoclonal antibody, following the manufacturer's instructions (BD Biosciences, Mississauga ON).

[6] = test system: normal human bronchial cells (NHBE); experiment: Cell viability (CellTiter-Glo), normal cells; type: cell-based; conditions: compared to doxorubicin, FIG. 3a
Method: as §2, §3

in vitro [7] = conditions: human, microsomes
in vitro [8] = conditions: Sprague-Dawley, rat, microsomes
in vitro [9] = conditions: male, CD-1, mouse, microsomes
[10] = Lipophilicity by C-18 reversed phase HPLC relative retention; conditions: versus zolodronic acid
SH-SYSY neurons = experiment: LDH toxicity assay in immortalized human neurons; type: cell-based
[11] = test system: phosphorylated Tau protein (P-Tau); experiment: Phosphorylation of the tau protein in immortalized human neurons; type: cell-based; conditions: immortalized human neurons (SH-SYSY)

Chain of recombinant human GGPPS (O95749 whole entry): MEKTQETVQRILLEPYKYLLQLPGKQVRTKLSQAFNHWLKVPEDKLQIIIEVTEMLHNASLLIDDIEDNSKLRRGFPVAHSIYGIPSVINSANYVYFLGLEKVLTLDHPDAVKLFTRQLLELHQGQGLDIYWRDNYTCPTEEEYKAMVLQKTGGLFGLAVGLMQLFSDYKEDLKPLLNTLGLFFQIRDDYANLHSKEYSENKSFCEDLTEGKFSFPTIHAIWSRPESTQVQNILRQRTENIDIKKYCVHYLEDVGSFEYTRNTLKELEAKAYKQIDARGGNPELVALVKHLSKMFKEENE
T1 sequence (P14324 whole entry): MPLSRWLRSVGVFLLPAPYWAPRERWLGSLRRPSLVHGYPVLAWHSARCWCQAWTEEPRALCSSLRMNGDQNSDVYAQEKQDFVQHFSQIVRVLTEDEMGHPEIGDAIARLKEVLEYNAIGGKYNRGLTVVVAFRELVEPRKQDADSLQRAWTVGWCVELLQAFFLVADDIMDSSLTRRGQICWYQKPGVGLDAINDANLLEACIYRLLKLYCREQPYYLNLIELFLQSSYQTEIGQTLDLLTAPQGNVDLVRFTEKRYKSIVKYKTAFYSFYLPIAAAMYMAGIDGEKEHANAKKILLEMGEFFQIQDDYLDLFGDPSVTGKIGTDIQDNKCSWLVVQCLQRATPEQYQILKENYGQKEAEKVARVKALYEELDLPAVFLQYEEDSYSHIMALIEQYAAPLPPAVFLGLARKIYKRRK

| Compound | EC50 (RPMI-8226) | IC50 (recombinant human GGPPS) | Ratio of hFPPS IC50 vs hGGPPS IC50 (recombinant human GGPPS) | IC50 (hFPPS [4]) | EC50 (KMS28PE) | EC50 (JJN3) | other results |
| --- | --- | --- | --- | --- | --- | --- | --- |
| COC(C(=O)Nc1cccc(-c2nc(NC(P(=O)(O)O)P(=O)(O)O)c3ccsc3n2)c1)c1ccccc1 (stereo not drawn) [Compound I-24] | – | – | – | – | – | – | apoptosis [5]: induce apoptosis |
| O=P(O)(O)C(O)(Cc1cccnc1)P(=O)(O)O [RIS, Risedronic acid, reference compound] | – | – | – | – | 10600 nM | 10000 nM | – |
| COc1ccc(NC(=O)c2cccc(-c3nc(NC(P(=O)(O)O)P(=O)(O)O)c4ccsc4n3)c2)cc1F [Compound I-37, (((2-(3-((3-fluoro-4-methoxyphenyl)carbamoyl)phenyl)thieno[2,3-d]pyrimidin-4-yl)amino)methylene)bis(phosphonic acid)] | 150 nM | – | – | – | 170 nM | 510 nM | toxicity to normal human bronchial cells [6]: less toxic; half-life (in vitro [7]): 154 min; half-life (in vitro [8]): 187 min; half-life (in vitro [9]): 128 min; difference in relative retention time on C-18 reversed phase HPLC column (lipophilicity) [10]: more than 7 min |
| O=P(O)(O)C(Nc1nc(-c2ccccc2)nc2sccc12)P(=O)(O)O [Compound C-5, reference compound] | – | 0.082 µM | ~7 | – | – | – | IC50 (hFPPS [1]): 540 nM |
| O=P(O)(O)C(Nc1ncnc2sc(-c3ccc(C(F)(F)F)cc3)cc12)P(=O)(O)O [Compound C-12, reference compound] | > 50000 nM | ~10000 µM | >4 × 10^−5 | 23 nM | – | > 10000 nM | – |
| O=P(O)(O)C(O)(Cn1ccnc1)P(=O)(O)O [ZOL, zoledronic acid, reference compound] | – | – | – | – | 6400 nM | 5000 nM | Reduction in P-Tau/Total-tau protein [11]: 50% |
| O=P(O)(O)C(Nc1ncnc2sc(-c3ccccc3)cc12)P(=O)(O)O [Compound C-10, reference compound] | – | – | – | 200 nM | – | – | – |
| O=P(O)(O)C(Nc1ncnc2sc(-c3ccc(OC4CC4)cc3)cc12)P(=O)(O)O [Compound C-13, reference compound] | > 50000 nM | ~10000 µM | >7 × 10^−5 | 14 nM | – | > 10000 nM | – |

Continued, in another order:

| EC50 (RPMI-8226) | IC50 (recombinant human GGPPS) | Ratio of hFPPS IC50 vs hGGPPS IC50 (recombinant human GGPPS) | IC50 (hFPPS [4]) | Compound | EC50 (KMS28PE) | EC50 (JJN3) | other results |
| --- | --- | --- | --- | --- | --- | --- | --- |
| 120 nM | – | – | – | Cc1ccc(C(=O)Nc2cccc(-c3nc(NC(P(=O)(O)O)P(=O)(O)O)c4ccsc4n3)c2)cc1 [Compound I-18, (((2-(3-(4-methylbenzamido)phenyl)thieno[2,3-d]pyrimidin-4-yl)amino)methylene)bis(phosphonic acid)] | 620 nM | 600 nM | IC50 (hFPPS [1]): 2400 nM |
| 140 nM | 0.065 µM | – | – | COc1ccc(NC(=O)c2cccc(-c3nc(NC(P(=O)(O)O)P(=O)(O)O)c4ncsc4n3)c2)cc1F [Compound I-43] | – | – | – |
| 110 nM | 0.053 µM | 57 | 3000 nM | O=C(Nc1ccccc1)c1cccc(-c2nc(NC(P(=O)(O)O)P(=O)(O)O)c3ccsc3n2)c1 [Compound I-6, (((2-(3-(phenylcarbamoyl)phenyl)thieno[2,3-d]pyrimidin-4-yl)amino)methylene)bis(phosphonic acid)] | 700 nM | 340 nM | selectivity improved for inhibiting hGGPPS vs hFPPS (recombinant human GGPPS): ~55 fold; blocking viability of cancer cells [2]: more effective; blocking viability of cancer cells [3]: more effective |
| 100 nM | 0.064 µM | 31 | 2000 nM | O=C(Nc1cccc(-c2nc(NC(P(=O)(O)O)P(=O)(O)O)c3ccsc3n2)c1)c1ccccc1 [Compound I-13] | 550 nM | 500 nM | selectivity improved for inhibiting hGGPPS vs hFPPS (recombinant human GGPPS): approximately 30 fold |
| 380 nM | 0.085 µM | 12 | 1000 nM | COc1ccc(C(=O)Nc2cccc(-c3nc(NC(P(=O)(O)O)P(=O)(O)O)c4ccsc4n3)c2)cc1 [Compound I-5, (((2-(3-(4-methoxybenzamido)phenyl)thieno[2,3-d]pyrimidin-4-yl)amino)methylene)bis(phosphonic acid)] | 1400 nM | 1300 nM | LDH Toxicity Assay (relative toxicity compared to the control samples) (SH-SYSY neurons): None observed; Reduction in P-Tau/Total-tau protein [11]: 43% |
| 200 nM | 0.085 µM | – | – | COc1ccc(NC(=O)c2cccc(-c3nc(NC(P(=O)(O)O)P(=O)(O)O)c4sccc4n3)c2)cc1F [Compound I-42, (((2-(3-((3-fluoro-4-methoxyphenyl)carbamoyl)phenyl)thieno[3,2-d]pyrimidin-4-yl)amino)methylene)bis(phosphonic acid)] | – | – | – |
